{"source": "patent US20040086904A1", "about": "“Screening assay for cotranslational translocation interfering compounds” (priority 2001, published 2004)", "key": {"[1]": {"system": "VCAMSP-SEAP construct", "assay": "SP-SEAP assay, secretion of SEAP into the medium", "format": "cell-based", "details": "transiently transfected cells, increasing concentrations", "description": "(§1) Cell Culture and Transient Transfections HEK293 cells are maintained in Dulbeccos' modified Eagle's medium (DMEM, Gibco-BRL), supplemented with 10% heat-inactivated fetal calf serum (FCS, Bio-Whittaker) and 100 Units/ml each of penicillin (BC) and streptomycin (Gibco-BRL) at 37° in a 5% humidified CO2 incubator. HUVEC cells are cultured in endothelial cell basal medium (EBM, Clonetics Corp.) supplemented with 10% FCS, 5×10^−4 M dibutyryl cAMP (Sigma), 1 μg/ml hydrocortisone (Sigma) and 10 ng/ml human EGF (Boehringer) at 37° in a 5% humidified CO2 incubator. VCAM-1 production is stimulated by incubation with 100U/ml TNF-α for ca. 8 hours. For transient transfection, HEK293 cells are seeded into 6-well or 24-well cell culture dishes at a density of 6×10^5 cells/well or 1.5×10^5 cells/well, respectively, the day prior to transfection and grown to 50-70% confluency. Cells are transfected with 2 μg or 1 μg of plasmid DNA, respectively, using the SuperFect reagent (Qiagen) according to the supplier's recommendations. Cells are incubated either without or with addition of a candidate compound, respectively, at concentrations indicated for ca. 24 to 48 hours. […]\n(§2) Human placental SEAP levels in cell supernatants are determined using either a fluorescence-based assay or an assay that measures light absorbance at 405 nm accompanying hydrolysis of pNPP according to the method described (Berger et al., 1988). […] 20 μl of 120 mM pNPP in 1x SEAP buffer prewarmed to 37° is added and the change in absorbance at 37° is plotted. […] For determination of SEAP levels by a fluorescence-based assay the Atto Phos AP Fluorescent Substrate Sysem (Promega) is used according to the manufacturer's instructions.\n(§3) For the establishment and as a first proof of principle of an assay (system) according to the present invention, SP-reporter gene fusion constructs are generated using the SP of compound sensitive and insensitive proteins, respectively, and the mature sequence of placental SEAP as the reporter gene (see FIG. 5). […] Finally, secretion of the reporter SEAP protein into the medium is determined. […]"}, "[2]": {"system": "E-SelectinSP-SEAP fusion protein", "assay": "SP-SEAP assay, secretion of SEAP into the medium", "format": "cell-based", "details": "transiently transfected cells, increasing concentrations", "description": "as §1, §2, §3"}, "[3]": {"system": "VCAMSP(15+4)-SEAP construct", "assay": "SP-SEAP assay, secretion of SEAP into the medium", "format": "cell-based", "details": "transiently transfected cells, increasing concentrations, dose-dependent", "description": "as §1, §2, §3"}, "[4]": {"system": "MCP-1 SP-SEAP fusion construct", "assay": "SP-SEAP assay, secretion of SEAP into the medium", "format": "cell-based", "details": "transient overexpression in mammalian cells, increasing concentrations", "description": "(§4) Cell Culture and Transient Transfections HEK293 cells are maintained in Dulbeccos' modified Eagle's medium (DMEM, Gibco-BRL), supplemented with 10% heat-inactivated fetal calf serum (FCS, Bio-Whittaker) and 100 Units/ml each of penicillin (BC) and streptomycin (Gibco-BRL) at 37° in a 5% humidified CO2 incubator. HUVEC cells are cultured in endothelial cell basal medium (EBM, Clonetics Corp.) supplemented with 10% FCS, 5×10^−4 M dibutyryl cAMP (Sigma), 1 μg/ml hydrocortisone (Sigma) and 10 ng/ml human EGF (Boehringer) at 37° in a 5% humidified CO2 incubator. VCAM-1 production is stimulated by incubation with 100U/ml TNF-α for ca. 8 hours. For transient transfection, HEK293 cells are seeded into 6-well or 24-well cell culture dishes at a density of 6×10^5 cells/well or 1.5×10^5 cells/well, respectively, the day prior to transfection and grown to 50-70% confluency. Cells are transfected with 2 μg or 1 μg of plasmid DNA, respectively, using the SuperFect reagent (Qiagen) according to the supplier's recommendations. Cells are incubated either without or with addition of a candidate compound, respectively, at concentrations indicated for ca. 24 to 48 hours. For proteasome inhibition experiments Lactacystin (Calbiochem) is added at a final concentration of 5 μM alone or together with a candidate compound 5 hours post-transfection, respectively.\n(§5) Human placental SEAP levels in cell supernatants are determined using either a fluorescence-based assay or an assay that measures light absorbance at 405 nm accompanying hydrolysis of pNPP according to the method described (Berger et al., 1988). Briefly, a 500 μl aliquot of medium is removed from the culture dish, clarified for 1 min at 14,000×g and heated for 5 minutes at 65°. An aliquot of medium (10 μl-100 μl) is adjusted to 1x SEAP buffer (1.0 M diethanolamine, pH 9.8, 0.5 mM MgCl2, 10 mM L-homoarginine) in a final volume of 200 μl in a 96-well flat bottom culture dish (Nunc) and prewarmed to 37° for 10 min. 20 μl of 120 mM pNPP in 1x SEAP buffer prewarmed to 37° is added and the change in absorbance at 37° is plotted. Heating step and inclusion of L-homoarginine in the assay buffer inhibit any endogenous phophatase activity. For determination of SEAP levels by a fluorescence-based assay the Atto Phos AP Fluorescent Substrate Sysem (Promega) is used according to the manufacturer's instructions.\n(§6) To further validate the novel assay system claimed in the present invention we generated SP-SEAP fusion constructs similarily to the method as described in example 1, but using the SP of other protein targets playing critical roles in various disease processes and tested their functionality by transient overexpression in mammalian cells in the absence or presence of increasing concentrations of compound CP as described (FIG. 7). […]"}, "[5]": {"system": "VEGF SP-SEAP construct", "assay": "SP-SEAP assay, secretion of SEAP into the medium", "format": "cell-based", "details": "transient overexpression in mammalian cells, increasing concentrations, dose dependent, compared to VCAM-1 SP-SEAP", "description": "as §4, §5, §6"}, "[6]": {"system": "IL-12p40 SP-SEAP fusion construct", "assay": "SP-SEAP assay, secretion of SEAP into the medium", "format": "cell-based", "details": "transient overexpression in mammalian cells, increasing concentrations", "description": "as §4, §5, §6"}, "[7]": {"system": "IL4 SP-SEAP fusion construct", "assay": "SP-SEAP assay, secretion of SEAP into the medium", "format": "cell-based", "details": "transient overexpression in mammalian cells, increasing concentrations", "description": "as §4, §5, §6"}, "[8]": {"molecular_target": "T1, ICAM-1 (Homo sapiens, UniProt P05362)", "T1 construct": "Full length cDNAs of the adhesion molecules VCAM-1, ICAM-1 and E-Selectin are transcribed and translated; host or cells: cell-free: coupled TNT reticulocyte lysate (Promega) with dog pancreatic microsomes", "T1 sequence (P05362 28-532)": "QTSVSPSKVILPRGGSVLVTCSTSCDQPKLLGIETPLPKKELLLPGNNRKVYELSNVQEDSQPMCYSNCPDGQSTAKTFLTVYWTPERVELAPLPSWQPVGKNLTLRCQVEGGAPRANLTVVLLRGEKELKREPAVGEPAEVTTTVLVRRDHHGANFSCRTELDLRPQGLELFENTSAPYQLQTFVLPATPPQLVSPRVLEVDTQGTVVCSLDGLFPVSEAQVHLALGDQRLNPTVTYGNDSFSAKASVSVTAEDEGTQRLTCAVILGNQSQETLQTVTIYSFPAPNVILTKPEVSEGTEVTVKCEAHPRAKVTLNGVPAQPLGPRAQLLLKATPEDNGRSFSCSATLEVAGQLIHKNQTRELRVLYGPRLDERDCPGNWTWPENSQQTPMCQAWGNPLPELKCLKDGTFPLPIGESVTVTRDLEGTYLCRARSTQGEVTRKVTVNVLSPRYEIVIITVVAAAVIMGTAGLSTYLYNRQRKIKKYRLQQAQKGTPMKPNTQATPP", "assay": "Cell-free translation/translocation assay, ICAM-1", "format": "biochemical", "details": "reticulocyte lysate with dog pancreatic microsomes", "source_text": "Proteins are radioactively labelled and visualised by autoradlography."}}}
{"smiles": "CCCCC(C)CC1NC(=O)C(Cc2cn(OC)c3ccccc23)N(C)C(=O)C(CC(C)C)NC(=O)C(CC(C)C)N(C)C(=O)C(CC(C)CCCC)NC(=O)C(CCC(=O)OCCC)OC(=O)C(C)N(C)C1=O", "note": "(centres unmarked) [CP]", "values": [{"measurement": "sensitivity of SEAP secretion to the compound", "setting": "[1]", "result": "slight sensitivity"}, {"measurement": "sensitivity of SEAP secretion to the compound", "setting": "[2]", "result": "compound-insensitive"}, {"measurement": "sensitivity of SEAP secretion to the compound", "setting": "[3]", "result": "full sensitivity"}, {"measurement": "sensitivity of SEAP secretion to the compound", "setting": "[4]", "result": "insensitive"}, {"measurement": "sensitivity of SEAP secretion to the compound", "setting": "[5]", "result": "sensitive"}, {"measurement": "sensitivity of SEAP secretion to the compound", "setting": "[6]", "result": "insensitive"}, {"measurement": "sensitivity of SEAP secretion to the compound", "setting": "[7]", "result": "insensitive"}, {"measurement": "concentration needed to inhibit translocation of ICAM-1, relative to VCAM-1", "setting": "[8]", "result": "20 to 30", "unit": "times"}]}
